Measurements as given in PubChem BioAssay AID2060492 (Molecular Pharmacology Branch, DTP, NCI, 2025).

Tested on: 695427-040-R-J1-PDC complex spheroids, viability percent T/C
Experiment: Anticancer human tumor 695427-040-R-J1-PDC patient-derived colon adenocarcinoma cell line growth inhibition [GQUAD]
Conditions: for IC50: curve of first compound; for viability, T/C: stronger effect = lower value; active = viability on the fitted dose curve at most 10% of control; inactive = the rest
Text: DNA G-quadruplex Stabilizer Agents in Combinations in Complex Spheroids
A high-throughput screen of multi-cell type tumor spheroids was designed to identify active combinations of DNA G-quadruplex stabilizer agents and targeted small molecules. Complex spheroids include a stromal component modeled by human endothelial cells (HUVEC) and fibroblasts modeled by human mesenchymal stem cells (MSCs). The concentration ranges selected for each drug and investigational agent were based upon clinically achievable concentrations if the clinical Cmax of the agent was known.
Compounds. The drugs and investigational agents: pidnarulex (CX-5461; NSC782164), APTO-253 (NSC789042), BRACO-19 (NSC847499), peposertib (NSC802822), ceralasertib (NSC780249), elimusertib (NSC800525), camonsertib (NSC841442), AZD-1390 (NSC803789), olaparib (NSC753686), talazoparib (NSC767125), ART-558 (NSC835418), sotorasib (NSC818433), MRTX-1133 (NSC836407), SN-38 (NSC673596), topotecan (NSC609699), etoposide (NSC141540), doxorubicin (NSC123127), gemcitabine (NSC613327), 5-fluorouracil (NSC19893), paclitaxel (NSC125973), vemurafenib (NSC761431), panobinostat (NSC761190), R-306465 (JNJ-16241199; NSC773264), adavosertib (NSC754352), TP-3654 (NSC805149), carboplatin (NSC241240), KSQ-4279 (NSC840948), and staurosporine (NSC755774) were obtained from the National Cancer Institute (NCI) Developmental Therapeutics Program Chemical Repository (34). The FDA-approved anticancer drug set is available from the NCI Developmental Therapeutics Program. […] The stock solutions were prepared in dimethyl sulfoxide (DMSO, Sigma-Aldrich, St. Louis, MO, cat. D2650) at 800-fold the tested concentration and stored at -70 degrees C prior to their use. All drugs and investigational agents were tested over a range starting from a high concentration at or near the clinical Cmax and decreasing in half-log increments. If the clinical Cmax for an agent had not been determined, the highest concentration tested was 10 microM.
2.3 Cell Culture. All cells were maintained in an incubator at 37 degrees C and 5% CO2 with 95% humidity. The PDC lines were cultured according to standard operating procedures established by the NCI PDMR. All PDCs were thawed and cultured in Matrigel-coated flasks prepared with a working solution of 1X Ham's F-12 nutrient mix, without supplementation (Invitrogen, cat. 11765054), 100 U/mL penicillin-streptomycin (Invitrogen, cat. 15140122), and 2.5% Matrigel (Corning Inc., cat. 354248) for the first three passages. The 857933-349-R-J2-PDC line was cultured in 6C/Colon 1B media, which includes advanced DMEM/F-12 (Thermo Fisher Scientific, cat. 12634028), 10 mM HEPES (Thermo Fisher Scientific, cat. 15630080), 1X GlutaMAX supplement (Thermo Fisher Scientific, cat. 35050061), 0.1 mg/mL primocin (InvivoGen, cat. ant-pm-2), 10% defined fetal bovine serum, heat inactivated (HyClone Laboratories Inc., cat. SH30070.03HI), 50% L-WRN conditioned media (ATCC, cat. CRL-3276), 1.25 mM N-Acetyl-L-cysteine (Sigma-Aldrich, cat. A9165), 10 mM nicotinamide (Sigma-Aldrich, cat. N0636), 1X B-27 supplement (Thermo Fisher Scientific, cat. 17504044), 1X N-2 supplement (Thermo Fisher Scientific, cat. 17502048), 10 microM Y-27632 dihydrochloride (Tocris Bioscience, cat. 1254), and 50 ng/mL human EGF recombinant protein (Thermo Fisher Scientific, cat. PHG0311). The 485176-168-R4-J1-PDC line was cultured in Panc media, which includes all 6C/Colon 1B media components plus 100 ng/mL human FGF-10 (Thermo Fisher Scientific, cat. 100-26), 500 nM SB-431542 (Selleckchem, cat. S1067), and gastrin (Tocris, cat. 3006).
[…]

[1] = second compound 0.0316 µM, first compound 0.000999 µM
[2] = second compound 0.0316 µM, first compound 0.00316 µM
[3] = second compound 0.0316 µM, first compound 0.00999 µM
[4] = second compound 0.0316 µM, first compound 0.0316 µM
[5] = second compound 0.0316 µM, first compound 0.0999 µM
[6] = second compound 0.0316 µM, first compound 0.316 µM
[7] = second compound 0.1 µM, first compound 0.000999 µM
[8] = second compound 0.1 µM, first compound 0.00316 µM
[9] = second compound 0.1 µM, first compound 0.00999 µM
[10] = second compound 0.1 µM, first compound 0.0316 µM
[11] = second compound 0.1 µM, first compound 0.0999 µM
[12] = second compound 0.1 µM, first compound 0.316 µM
[13] = second compound 0.316 µM, first compound 0.000999 µM
[14] = second compound 0.316 µM, first compound 0.00316 µM
[15] = second compound 0.316 µM, first compound 0.00999 µM
[16] = second compound 0.316 µM, first compound 0.0316 µM
[17] = second compound 0.316 µM, first compound 0.0999 µM
[18] = second compound 0.316 µM, first compound 0.316 µM
[19] = second compound 1 µM, first compound 0.000999 µM
[20] = second compound 1 µM, first compound 0.00316 µM
[21] = second compound 1 µM, first compound 0.00999 µM
[22] = second compound 1 µM, first compound 0.0316 µM
[23] = second compound 1 µM, first compound 0.0999 µM
[24] = second compound 1 µM, first compound 0.316 µM
[25] = second compound 3.16 µM, first compound 0.000999 µM
[26] = second compound 3.16 µM, first compound 0.00316 µM
[27] = second compound 3.16 µM, first compound 0.00999 µM
[28] = second compound 3.16 µM, first compound 0.0316 µM
[29] = second compound 3.16 µM, first compound 0.0999 µM
[30] = second compound 3.16 µM, first compound 0.316 µM
[31] = second compound 10 µM, first compound 0.000999 µM
[32] = second compound 10 µM, first compound 0.00316 µM
[33] = second compound 10 µM, first compound 0.00999 µM
[34] = second compound 10 µM, first compound 0.0316 µM
[35] = second compound 10 µM, first compound 0.0999 µM
[36] = second compound 10 µM, first compound 0.316 µM
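Also: spheroids exposed to compounds for seven days before readout.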

CC[C@@]1(O)C(=O)OCc2c1cc1n(c2=O)Cc2cc3c(CN(C)C)c(O)ccc3nc2-1 + CN(C)c1ccc(Nc2c3ccc(NC(=O)CCN4CCCC4)cc3nc3cc(NC(=O)CCN4CCCC4)ccc23)cc1
> 316 nM: IC50 (second compound 0.0316 µM) | IC50 (second compound 0.1 µM) | IC50 (second compound 0.316 µM) | IC50 (second compound 1 µM) | IC50 (second compound 3.16 µM) | IC50 (second compound 10 µM)
inactive: viability, T/C [1] 109% | viability, T/C [2] 95% | viability, T/C [3] 108% | viability, T/C [4] 100% | viability, T/C [5] 104% | viability, T/C [6] 91.6% | viability, T/C [7] 117% | viability, T/C [8] 101% | viability, T/C [9] 96.8% | viability, T/C [10] 101% | viability, T/C [11] 98.9% | viability, T/C [12] 85% | viability, T/C [13] 97.6% | viability, T/C [14] 104% | viability, T/C [15] 100% | viability, T/C [16] 111% | viability, T/C [17] 100% | viability, T/C [18] 95.8% | viability, T/C [19] 101% | viability, T/C [20] 95.2% | viability, T/C [21] 96.1% | viability, T/C [22] 99.9% | viability, T/C [23] 97.8% | viability, T/C [24] 93.7% | viability, T/C [25] 99.2% | viability, T/C [26] 100% | viability, T/C [27] 96.2% | viability, T/C [28] 103% | viability, T/C [29] 110% | viability, T/C [30] 82.1% | viability, T/C [31] 94.3% | viability, T/C [32] 84.8% | viability, T/C [33] 92.2% | viability, T/C [34] 88.3% | viability, T/C [35] 91% | viability, T/C [36] 88.6%

CCc1c2c(nc3ccc(O)cc13)-c1cc3c(c(=O)n1C2)COC(=O)[C@]3(O)CC + CN(C)c1ccc(Nc2c3ccc(NC(=O)CCN4CCCC4)cc3nc3cc(NC(=O)CCN4CCCC4)ccc23)cc1
247 nM: IC50 (second compound 3.16 µM)
252 nM: IC50 (second compound 10 µM)
> 316 nM: IC50 (second compound 0.0316 µM) | IC50 (second compound 0.1 µM) | IC50 (second compound 0.316 µM) | IC50 (second compound 1 µM)
inactive: viability, T/C [1] 104% | viability, T/C [2] 94.5% | viability, T/C [3] 93.3% | viability, T/C [4] 74.7% | viability, T/C [5] 70.8% | viability, T/C [6] 51.3% | viability, T/C [7] 108% | viability, T/C [8] 90.2% | viability, T/C [9] 85.4% | viability, T/C [10] 73.2% | viability, T/C [11] 68.5% | viability, T/C [12] 53.2% | viability, T/C [13] 103% | viability, T/C [14] 94% | viability, T/C [15] 84% | viability, T/C [16] 75% | viability, T/C [17] 64.2% | viability, T/C [18] 49.6% | viability, T/C [19] 99.2% | viability, T/C [20] 89.3% | viability, T/C [21] 82.1% | viability, T/C [22] 76.1% | viability, T/C [23] 66.8% | viability, T/C [24] 51% | viability, T/C [25] 94.2% | viability, T/C [26] 97.8% | viability, T/C [27] 85.7% | viability, T/C [28] 76.5% | viability, T/C [29] 64.2% | viability, T/C [30] 46.2% | viability, T/C [31] 90.2% | viability, T/C [32] 88% | viability, T/C [33] 71.9% | viability, T/C [34] 69.2% | viability, T/C [35] 60.7% | viability, T/C [36] 46.3%
